How the values were obtained:
HINT1 = molecular target: T1, HINT1 (Homo sapiens, UniProt P49773); assay: ITC; type: binding; conditions: 1-site model
T1 construct: N-terminal 6xHis with TEV site, tag cut; E. coli; homodimer, 126 residues visible

ADALP1 = molecular target: T2, ADALP1 (Homo sapiens, UniProt Q6DHV7); assay: X-ray crystal structure, […] Å; type: binding; conditions: co-crystallized with AT-8003 (10 mM), pH 5.3 to 6.3; Zn2+; active site
T2 construct: gene MAPDA; N-terminal 6xHis with TEV site, tag cut; E. coli; monomer; Zn; crystals grown with trace alpha-chymotrypsin
T2 sequence (Q6DHV7 1-355): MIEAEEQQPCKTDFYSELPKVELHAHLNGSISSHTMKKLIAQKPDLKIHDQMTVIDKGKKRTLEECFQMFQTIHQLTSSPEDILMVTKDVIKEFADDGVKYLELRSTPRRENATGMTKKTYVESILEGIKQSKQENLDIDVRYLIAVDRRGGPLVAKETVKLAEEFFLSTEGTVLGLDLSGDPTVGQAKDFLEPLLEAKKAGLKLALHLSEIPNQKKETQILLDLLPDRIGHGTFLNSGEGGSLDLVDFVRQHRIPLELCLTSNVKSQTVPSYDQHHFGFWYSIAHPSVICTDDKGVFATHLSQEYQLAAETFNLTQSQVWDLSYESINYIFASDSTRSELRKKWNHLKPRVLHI

T1 sequence (P49773 whole entry): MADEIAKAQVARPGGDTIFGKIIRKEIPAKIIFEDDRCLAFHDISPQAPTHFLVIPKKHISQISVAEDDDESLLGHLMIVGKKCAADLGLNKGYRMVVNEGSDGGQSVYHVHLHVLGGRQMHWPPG

Row | SMILES | Ka (HINT1) | X-ray crystal structure, 2.44 Å (ADALP1)
1 | Nc1ncnc2c1ncn2[C@@H]1O[C@H](COP(=O)(O)O)[C@@H](O)[C@H]1O [AMP] | 1.7 10^4 | –
2 | C[C@@]1(F)[C@H](O)[C@@H](COP(=O)(O)O)O[C@H]1n1cnc2c(=O)[nH]c(N)nc21 [AT-8001] | – | the product AT-8001 was found bound at the active site
